The test has as its target MELK (Homo sapiens, UniProt Q14680). Kind of test: Kinase assay: MELK activity, phosphorylation of FITC-labeled histone H3 peptide measured by IMAP fluorescence polarization. The class given is biochemical. As to conditions: read-out: IC50 (μM) (kinase assay). The procedure:
MELK activity was determined in the presence or absence of compounds using fluorescein isothiocyanate-labeled (FITC-labeled) histone H3 peptide as a substrate. […] Test compounds were dissolved in DMSO at 12.5 mM and then serially diluted as the DMSO concentration in the assays to be 1%. […] The reaction was stopped by the addition of three fold assay volume of progressive binding solution. Following 0.5 hour incubation at room temperature, fluorescence polarization was measured by Wallac EnVision 2103 multilabel reader (PerkinElmer).
(In fluorescence polarisation assays a small probe gives low polarisation when free and higher when bound to something large.)

The mark [1] stands for this setting: MELK kinase assay, IMAP fluorescence polarization, 50 micro-M ATP.

These results are taken from patent US9120749B2, “Quinoline derivatives and MELK inhibitors containing the same” (ONCOTHERAPY SCIENCE, INC., priority 2010, dated 2015).

Structures can show the parent of a compound that is named as a salt. Where two headings read alike, the source gives them in different places.

One may read the IC50 as the midpoint of a concentration-inhibition curve.

Sequence of MELK (Q14680 whole entry, looked up): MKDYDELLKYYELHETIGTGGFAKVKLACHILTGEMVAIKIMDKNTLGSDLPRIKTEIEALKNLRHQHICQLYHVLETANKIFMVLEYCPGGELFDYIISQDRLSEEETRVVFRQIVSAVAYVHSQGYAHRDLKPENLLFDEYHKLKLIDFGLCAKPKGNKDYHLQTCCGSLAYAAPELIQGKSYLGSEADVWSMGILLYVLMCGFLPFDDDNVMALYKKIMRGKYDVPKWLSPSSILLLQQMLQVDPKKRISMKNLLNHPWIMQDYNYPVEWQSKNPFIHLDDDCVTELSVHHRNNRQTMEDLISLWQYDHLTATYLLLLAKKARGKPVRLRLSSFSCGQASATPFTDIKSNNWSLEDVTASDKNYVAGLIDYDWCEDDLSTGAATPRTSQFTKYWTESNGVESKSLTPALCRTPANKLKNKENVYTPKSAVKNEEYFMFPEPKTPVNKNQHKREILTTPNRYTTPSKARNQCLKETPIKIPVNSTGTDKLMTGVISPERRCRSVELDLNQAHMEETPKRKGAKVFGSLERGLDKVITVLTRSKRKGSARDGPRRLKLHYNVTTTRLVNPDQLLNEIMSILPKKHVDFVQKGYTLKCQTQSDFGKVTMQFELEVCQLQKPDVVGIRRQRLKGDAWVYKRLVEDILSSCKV

For the compound `CN(C)[C@H]1CC[C@H](Nc2c(C(=O)C3CC3)cnc3ccc(-c4cc(F)c(O)c(Cl)c4)cc23)CC1` [Example 264, (6-(3-chloro-5-fluoro-4-hydroxyphenyl)-4-((1R,4R)-4-(dimethylamino)cyclohexylamino)quinolin-3-yl)(cyclopropyl)methanone], the IC50 under setting [1] amounted to 0.0029 µM.

Consider `CN(C)C[C@H]1CC[C@H](Nc2c(C(=O)C3CC3)cnc3ccc(-c4cc(Cl)c(O)c(Cl)c4)cc23)CC1` [Example 324, cyclopropyl(6-(3,5-dichloro-4-hydroxyphenyl)-4-(trans-4-((dimethylamino)methyl)cyclohexylamino)quinolin-3-yl)methanone], for which the IC50 under setting [1] was found to be 0.00085 µM. `O=C(c1cnc2ccc(-c3cc(Cl)c(O)c(Cl)c3)cc2c1Nc1ccc(CN2CCCC2)cc1)C1CC1` [Example 366, Cyclopropyl{6-(3,5-dichloro-4-hydroxyphenyl)-4-[4-(pyrrolidin-1-ylmethyl)phenylamino]quinolin-3-yl}methanone]: the IC50 under setting [1] was determined as 0.15 µM. On to `CC(=O)c1cnc2ccc(-c3cc(Cl)c(O)c(Cl)c3)cc2c1Nc1ccc(CN(C)C)cc1` [Example 374], for which the IC50 under setting [1] was 0.0066 µM. In the case of `CC(=O)c1cnc2ccc(-c3cc(F)c(O)c(Cl)c3)cc2c1N[C@H]1CC[C@H](CN(C)C)CC1` [Example 378, 1-(6-(3-chloro-5-fluoro-4-hydroxyphenyl)-4-((trans)-4-((dimethylamino)methyl)cyclohexylamino)quinolin-3-yl) ethanone], the IC50 under setting [1] is 0.0061 µM.

For the compound `CN(CCO)C[C@H]1CC[C@H](Nc2c(C(=O)C3CC3)cnc3ccc(-c4cc(Cl)c(O)c(Cl)c4)cc23)CC1` [Example 635, cyclopropyl(6-(3,5-dichloro-4-hydroxyphenyl)-4-(1R,4R)-4-(((2-hydroxyethyl)(methyl)amino)methyl)cyclohexylamino)quinolin-3-yl)methanone hydrochloride], where the note is “hydrochloride”, the IC50 came to 0.00074 µM. In the case of `CC(=O)c1c(C)nc2ccc(-c3cc(Cl)c(O)c(Cl)c3)cc2c1N[C@H]1CC[C@H](CN(C)C)CC1` [Example 833, 1-(6-(3,5-dichloro-4-hydroxyphenyl)-4-(1R,4R)-4-((dimethylamino)methyl)cyclohexylamino)-2-methylquinolin-3-yl)ethanone hydrochloride], the IC50 under setting [1] was determined as 0.17 µM. In the case of `CC(=O)c1c(C)nc2ccc(-c3cc(F)c(O)c(Cl)c3)cc2c1N[C@H]1CC[C@H](CN(C)C)CC1` [Example 834, 1-(6-(3-chloro-5-fluoro-4-hydroxy-phenyl)-4-(1R,4R)-4-((dimethylamino)methyl)cyclohexylamino)-2-methyl-quinolin-3-yl)ethanone hydrochloride], the IC50 under setting [1] worked out at 0.82 µM. Take `CC(=O)c1c(C)nc2ccc(-c3cc(F)c(O)c(Cl)c3)cc2c1Nc1ccc(N2CCN(C)CC2)nc1` [Example 837, 1-(6-(3-chloro-5-fluoro-4-hydroxy-phenyl)-2-methyl-4-(6-(4-methyl-piperazin-1-yl)pyridin-3-ylamino)quinolin-3-yl)ethanone hydrochloride]: the IC50 under setting [1] was determined as 0.54 µM. With `CN1CCN(c2ccc(Nc3c(C(=O)C4CC4)cnc4cc(C(F)(F)F)c(-c5cc(Cl)c(O)c(Cl)c5)cc34)cn2)CC1` [Example 839, cyclopropyl(6-(3,5-dichloro-4-hydroxy-phenyl)-4-(6-(4-methylpiperazin-1-yl)pyridin-3-ylamino)-7-(trifluoro-methyl)quinolin-3-yl)methanone], the IC50 under setting [1] was 4.2 µM. Same read-out and setting: under `CN1CCN(c2ccc(Nc3c(C(=O)C4CC4)cnc4cc(C(F)(F)F)c(-c5cc(F)c(O)c(Cl)c5)cc34)cn2)CC1` [Example 840, (6-(3-chloro-5-fluoro-4-hydroxyphenyl)-4-(6-(4-methylpiperazin-1-yl)pyridin-3-ylamino)-7-(trifluoromethyl)quinolin-3-yl)(cyclopropyl)methanone] stands 3.1 µM; under `CN(C)C[C@H]1CC[C@H](Nc2c(C(=O)C3CC3)cnc3cc(C(F)(F)F)c(-c4cc(F)c(O)c(Cl)c4)cc23)CC1` [Example 841], 0.77 µM. Still for that read-out and setting: the same measure for `CN(C)C[C@H]1CC[C@H](Nc2c(C(=O)C3CC3)cnc3cc(C(F)(F)F)c(-c4cc(Cl)c(O)c(Cl)c4)cc23)CC1` [Example 842]: 0.93 µM; for `CC(=O)c1cnc2cc(C)c(-c3cc(Cl)c(O)c(Cl)c3)cc2c1Nc1ccc(CN(C)C)cc1` [Example 847, 1-(6-(3,5-dichloro-4-hydroxyphenyl)-4-(4-((dimethylamino)methyl)phenyl-amino)-7-methylquinolin-3-yl) ethanone hydrochloride]: 0.55 µM; for `CC(=O)c1cnc2cc(C)c(-c3cc(F)c(O)c(Cl)c3)cc2c1Nc1ccc(N2CCN(C)CC2)nc1` [Example 856, 1-(6-(3-chloro-5-fluoro-4-hydroxy-phenyl)-7-methyl-4-((6-(4-methyl-piperazin-1-yl)pyridin-3-yl)amino)quinolin-3-yl)ethanone hydrochloride]: 0.46 µM.

With `CC(=O)c1cnc2cc(C)c(-c3cc(Cl)c(O)c(Cl)c3)cc2c1N[C@H]1CC[C@H](CN(C)C)CC1` [Example 857], the IC50 under setting [1] was 3.4 µM. For `CC(=O)c1cnc2cc(C)c(-c3cc(F)c(O)c(Cl)c3)cc2c1Nc1ccc(CN(C)C)cc1` [Example 858, 1-(6-(3-chloro-5-fluoro-4-hydroxy-phenyl)-4-((4-((dimethylamino)methyl)phenyl)amino)-7-methylquinolin-3-yl)ethanone hydrochloride], under setting [1], the IC50 was 0.2 µM. On to `CC(=O)c1cnc2cc(C)c(-c3cc(F)c(O)c(Cl)c3)cc2c1N[C@H]1CC[C@H](CN(C)C)CC1` [Example 859, 1-(6-(3-chloro-5-fluoro-4-hydroxy-phenyl)-4-((1R,4R)-4-((dimethylamino)methyl)cyclohexyl)amino)-7-methyl-quinolin-3-yl)ethanone hydrochloride], for which, under setting [1], the IC50 came to 0.84 µM. For the compound `CC(=O)c1cnc2ccc(-c3ccc(-c4ccc(O)cc4)cc3)cc2c1Nc1cccc(CCN2CCCC2)c1` [Example 888, 1-(6-(4′-hydroxy-[1,1′-biphenyl]-4-yl)-4-((3-(2-(pyrrolidin-1-yl)ethyl)phenyl)amino)quinolin-3-yl) ethanone hydrochloride], the IC50 under setting [1] is 3.4 µM. Regarding `CC(=O)c1cnc2ccc(-c3ccc4nc[nH]c4c3)cc2c1Nc1cccc(CCN2CCCC2)c1` [Example 896, 1-(6-(1H-benzo[d]imidazol-6-yl)-4-((3-(2-(pyrrolidin-1-yl)ethyl)phenyl)amino)quinolin-3-yl)ethanone hydrochloride], the IC50 under setting [1] came to 0.22 µM. `CC(=O)c1cnc2ccc(-c3ccc4nc[nH]c4c3)cc2c1Nc1ccc(N2CCC(N(C)C)C2)nc1` (stereo not drawn) [Example 905, 1-(6-(1H-benzo[d]imidazol-6-yl)-4-((6-(3-(dimethylamino)pyrrolidin-1-yl)pyridin-3-yl)amino)quinolin-3-yl) ethanone hydrochloride]: the IC50 under setting [1] stood at 0.11 µM. Consider `CC(=O)c1cnc2ccc(-c3ccncc3)cc2c1N[C@H]1CC[C@H](CN(C)C)CC1` [Example 908, 1-(4-((1R,4R)-4-((dimethylamino)methyl)cyclohexyl)amino)-6-(pyridin-4-yl)quinolin-3-yl)ethanone hydrochloride], for which, under setting [1], the IC50 stood at 0.23 µM. For `COc1ccc2c(c1)CN(c1ccc3ncc(C(C)=O)c(N[C@H]4CC[C@H](CN(C)C)CC4)c3c1)C2=O` [Example 933], the IC50 under setting [1] was found to be 1.2 µM. Same read-out and setting: the same measure for `N[C@H]1CC[C@H](Nc2c(C(=O)C3CC3)cnc3ccc(-c4cc(F)c(O)c(Cl)c4)cc23)CC1` [Example 936, (4-((1R,4R)-4-aminocyclohexylamino)-6-(3-chloro-5-fluoro-4-hydroxyphenyl)quinolin-3-yl)(cyclopropyl)methanone, hydrochloride]: 0.0019 µM; for `CC(C)C(=O)c1cnc2ccc(-c3cc(F)c(O)c(Cl)c3)cc2c1N[C@H]1CC[C@H](N)CC1` [Example 937, 1-(4-((1R,4R)-4-aminocyclohexylamino)-6-(3-chloro-5-fluoro-4-hydroxyphenyl)quinolin-3-yl)-2-methylpropan-1-one, dihydrochloride]: 0.0054 µM; for `CC(C)C(=O)c1cnc2ccc(-c3cc(F)c(O)c(F)c3)cc2c1N[C@H]1CC[C@H](N)CC1` [Example 938, 1-(4-((1R,4R)-4-aminocyclohexylamino)-6-(3,5-difluoro-4-hydroxyphenyl)quinolin-3-yl)-2-methylpropan-1-one, hydrochloride]: 0.017 µM.

For the compound `CC(=O)c1cnc2ccc(-c3cc(Cl)c(O)c(Cl)c3)cc2c1N[C@H]1CC[C@H](N)CC1` [Example 939, 1-(4-((1R,4R)-4-aminocyclohexylamino)-6-(3,5-dichloro-4-hydroxyphenyl)quinolin-3-yl)ethanone, hydrochloride], under setting [1], the IC50 came out at 0.0034 µM. The same measure, in the same setting: the same measure for `COc1cc(-c2ccc3ncc(C(C)=O)c(N[C@H]4CC[C@H](N)CC4)c3c2)cc(Cl)c1O` [Example 940, 1-(4-((1R,4R)-4-aminocyclohexylamino)-6-(3-chloro-4-hydroxy-5-methoxyphenyl)quinolin-3-yl)ethanone, hydrochloride]: 0.0012 µM; for `CN(C)[C@H]1CC[C@H](Nc2c(C(=O)C3CC3)cnc3ccc(-c4cc(Cl)c(O)c(Cl)c4)cc23)CC1` [Example 941, cyclopropyl(6-(3,5-dichloro-4-hydroxyphenyl)-4-((1R,4R)-4-(dimethylamino)cyclohexylamino)quinolin-3-yl)methanone, dihydrobromide]: 0.0016 µM; for `CC(=O)c1cnc2ccc(-c3cc(Cl)c(O)c(Cl)c3)cc2c1Nc1ccc(CN(C)C)cc1` [Example 942, 1-(6-(3,5-dichloro-4-hydroxyphenyl)-4-(4-((dimethylamino)methyl)phenylamino)quinolin-3-yl)ethanone]: 0.0022 µM.
